Experimental findings from patent publication US20230159445A1, “STAT INHIBITORY COMPOUNDS AND COMPOSITIONS” (JANPIX LIMITED, priority 2020, published 2023) are described below.

One data set deals with glutathione (GSH). Description: Reactivity Profiling with Glutathione (GSH), half-life by HPLC. The following applies: 5 mM glutathione (GSH) in IMDM with 10% FBS.
In a further data set the test system is MV4-11 cells. Put plainly: MV4-11 Cell Cytotoxicity Assay (CellTiter-Blue, 72 h). In kind it is cell-based, human. The settings on record: Homo sapiens, MV4-11; MV-4-11 cells. Put shortly: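 Viability read-out: CellTiter-Blue, 1 h, fluorescence 560/590 nm. Preceded by 72 h exposure (37° C, 5% CO2) to twofold dilution series from 50 μM, triplicate, 0.5% DMSO vehicle, applied 24 h after plating.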
Background: The colour change of resazurin is a common sign of viable cells or microbes.

The term half-life denotes the time needed for the level to fall by half in the phase considered. Read a low half-life as fast loss. A word on the IC50: it is the concentration that gives 50% inhibition. Lower therefore signals inhibition by little substance.

Method for glutathione (GSH): 3.5 μL of 5 mM stocking solution of the inhibitors in DMSO was added to 697.5 μL of Iscove's Modified Dulbecco's Medium (IMDM) supplemented with 10% FBS and antibiotic antimycotic solution, with 5 mM glutathione to afford a final concentration of 25 μM inhibitor with 0.5% DMSO. The solution was then immediately placed in the sample tray at 25° C. […] For each inhibitor, its peak is integrated at different time points and compared to the time zero injection in order to obtain a percentage remaining. Half-life is calculated according to a first order reaction kinetic taking into account those time points for which remaining percentage of inhibitor is above 40%, using the formula: t½=Ln(2)/k, where k is the slope of the linear plot of Ln[Inhibitor] vs time, according to the formula: Ln[A]=Ln[A]0−kt, where [A] is the value resulting from the integration at each time point, [A]0 the value at time zero, and t the time. For each inhibitor, both replicates are averaged and the resulting t½ reported.

Take `CC(C)(C)c1cc(CN(C(=O)CN(Cc2ccccc2F)S(=O)(=O)c2c(F)c(F)c(F)c(F)c2F)c2ccc(C(=O)O)cc2F)cc(C2CC2)c1` [Compound 1065, 4-(N-(3-(tert-butyl)-5-cyclopropylbenzyl)-2-(N-(2-fluorobenzyl)-(2,3,4,5,6-pentafluoro-phenyl)sulfonamido)acetamido)-3-fluorobenzoic acid]: the half-life at 25 μM with glutathione (GSH) fell in the range of 0.1 to 142 min. In the data set with MV4-11 cells, this compound showed an IC50 of 316 to 1000 nM.
The matching figures for `COc1cc(C(=O)O)ccc1N(Cc1cc(C2CC2)cc(N2CCCC2)c1)C(=O)CN(Cc1cnccc1C(F)(F)F)S(=O)(=O)c1c(F)c(F)c(F)c(F)c1F` [Compound 1165, 4-(N-(3-cyclopropyl-5-(pyrrolidin-1-yl)benzyl)-2-(N-((4-(trifluoromethyl)pyridin-3-yl)methyl)-(2,3,4,5,6-pentafluoro-phenyl)sulfonamido)acetamido)-3-methoxybenzoic acid]: 0.1 to 142 min and 316 to 1000 nM.
Consider `CN(c1cc(C(=O)O)ccc1N(Cc1cc(C2CC2)cc(C(C)(C)C)c1)C(=O)CN(Cc1ccccc1F)S(=O)(=O)c1c(F)c(F)c(F)c(F)c1F)S(C)(=O)=O` [Compound 1064, 4-(N-(3-(tert-butyl)-5-cyclopropylbenzyl)-2-(N-(2-fluorobenzyl)-(2,3,4,5,6-pentafluoro-phenyl)sulfonamido)acetamido)-3-(N-methylmethylsulfonamido) benzoic acid], for which the half-life at 25 μM in the data set with glutathione (GSH) fell in the range of 247 to 554 min. Moreover, in the data set with MV4-11 cells, the IC50 was in the range of 1000 to 3160 nM.
On to `Cc1cc(C(=O)O)ccc1N(Cc1cc(C2CC2)cc(C(C)(C)C)c1)C(=O)CN(Cc1ccccc1F)S(=O)(=O)c1c(F)c(F)c(F)c(F)c1F` [Compound 1088, 4-(N-(3-(tert-butyl)-5-cyclopropylbenzyl)-2-(N-(2-fluorobenzyl)-(2,3,4,5,6-pentafluoro-phenyl)sulfonamido)acetamido)-3-methylbenzoic acid], for which the half-life at 25 μM with glutathione (GSH) fell in the range of 142 to 247 min. The compound further had an IC50 in the data set with MV4-11 cells of 0.01 to 316 nM.
For `COc1cc(C(=O)O)ccc1N(Cc1cc(C2CC2)cc(C(C)(C)C)c1)C(=O)CN(Cc1cccnc1C(F)(F)F)S(=O)(=O)c1c(F)c(F)c(F)c(F)c1F` [Compound 1097, 4-(N-(3-(tert-butyl)-5-cyclopropylbenzyl)-2-(N-((2-(trifluoromethyl)pyridin-3-yl)methyl)-(2,3,4,5,6-pentafluoro-phenyl)sulfonamido)acetamido)-3-methoxybenzoic acid], the half-life at 25 μM with glutathione (GSH) was in the range of 247 to 554 min. In addition, the IC50 in the data set with MV4-11 cells is 316 to 1000 nM.
`Cc1cc(C(=O)O)cc(C)c1N(Cc1cc(C2CC2)cc(C(C)(C)C)c1)C(=O)CN(Cc1c(F)c(F)c(F)c(F)c1F)S(=O)(=O)c1c(F)c(F)c(F)c(F)c1F` [Compound 1201, 4-(N-(3-(tert-butyl)-5-cyclopropylbenzyl)-2-(N-((perfluorophenyl)methyl)-(2,3,4,5,6-pentafluorophenyl)sulfonamido)acetamido)-3,5-dimethylbenzoic acid]: the half-life at 25 μM in the data set on glutathione (GSH) is 554 to 100000 min. For the same compound, the IC50 in the data set with MV4-11 cells lay in the range of 316 to 1000 nM.
The matching figures for `COc1cc(C(=O)O)ccc1N(Cc1cccc(C(C)(C)C)c1)C(=O)CN(Cc1c(F)cc(F)cc1F)S(=O)(=O)c1c(F)c(F)c(F)c(F)c1F` [Compound 1150, 4-(N-(3-(tert-butyl)benzyl)-2-(N-(2,4,6-trifluorobenzyl)-(2,3,4,5,6-pentafluoro-phenyl)sulfonamido)acetamido)-3-methoxybenzoic acid]: 0.1 to 142 min and 0.01 to 316 nM.
In the data set on glutathione (GSH), `CC(C)(C)c1cc(CN(C(=O)CCN(Cc2ccc(Cl)cc2)S(=O)(=O)c2c(F)c(F)c(F)c(F)c2F)c2ccc(C(=O)O)c(O)c2)cc(C2CC2)c1` [Compound 1052, 4-(N-(3-(tert-butyl)-5-cyclopropylbenzyl)-3-(N-(4-chlorobenzyl)-(2,3,4,5,6-pentafluorophenyl)sulfon-amido)propanamido)-2-hydroxybenzoic acid] had a half-life at 25 μM of 142 to 247 min. This compound showed an IC50 in the data set with MV4-11 cells of 3160 to 100000 nM.
The matching figures for `COc1cc(C(=O)O)ccc1N(Cc1ccc2ccccc2c1)C(=O)CN(Cc1cnccc1C(F)(F)F)S(=O)(=O)c1c(F)c(F)c(F)c(F)c1F` [Compound 1157, 3-methoxy-4-(N-(naphthalen-2-ylmethyl)-2-(N-((4-(trifluoromethyl)pyridin-3-yl)methyl)-(2,3,4,5,6-pentafluoro-phenyl)sulfonamido)acetamido)benzoic acid]: 0.1 to 142 min and 1000 to 3160 nM.
The matching figures for `O=C(O)c1ccc(N(C(=O)CN(Cc2c(F)cc(F)cc2F)S(=O)(=O)c2c(F)c(F)c(F)c(F)c2F)C2CCC2)c(OC2CC2)c1` [Compound 1137, 4-(N-cyclobutyl-2-(N-(2,4,6-trifluorobenzyl)-(2,3,4,5,6-pentafluoro-phenyl)sulfonamido)acetamido)-3-cyclopropoxybenzoic acid]: 0.1 to 142 min and 1000 to 3160 nM.
The matching figures for `COc1cc(C(=O)O)ccc1N(Cc1cc(C2CC2)cc(C(C)(C)C)c1)C(=O)CN(Cc1ccnc(C(F)(F)F)c1)S(=O)(=O)c1c(F)c(F)c(F)c(F)c1F` [Compound 1133, 4-(N-(3-(tert-butyl)-5-cyclopropylbenzyl)-2-(N-((2-(trifluoromethyl)pyridin-4-yl)methyl)-(2,3,4,5,6-pentafluoro-phenyl)sulfonamido)acetamido)-3-methoxybenzoic acid]: 0.1 to 142 min and 316 to 1000 nM.
`CC(C)(C)c1cc(CN(C(=O)CN(Cc2ccc(Cl)cc2)S(=O)(=O)c2c(F)c(F)c(F)c(F)c2F)c2ccc(S(N)(=O)=O)cc2)cc(C2CC2)c1` [Compound 1055, N-(3-(tert-butyl)-5-cyclopropylbenzyl)-2-(N-(4-chlorobenzyl)-(2,3,4,5,6-pentafluorophenyl)sulfon-amido)-N-(4-sulfamoylphenyl) acetamide] gave a half-life at 25 μM in the data set on glutathione (GSH) of 554 to 100000 min. For the same compound, in the data set on MV4-11 cells, the IC50 lay within 1000 to 3160 nM.
The matching figures for `Cc1cc(C(=O)O)ccc1N(Cc1cc(C2CC2)cc(C(C)(C)C)c1)C(=O)CN(Cc1ccc(Cl)cc1)S(=O)(=O)c1c(F)c(F)c(F)c(F)c1F` [Compound 1056, 4-(N-(3-(tert-butyl)-5-cyclopropylbenzyl)-2-(N-(4-chlorobenzyl)-(2,3,4,5,6-pentafluorophenyl)sulfon-amido)acetamido)-3-methylbenzoic acid]: 247 to 554 min and 316 to 1000 nM.
In the data set with glutathione (GSH), `COc1cc(C(=O)O)ccc1N(Cc1cc(C2CC2)cc(C(C)(C)C)c1)C(=O)CN(Cc1ccc(F)c(F)c1F)S(=O)(=O)c1c(F)c(F)c(F)c(F)c1F` [Compound 1083, 4-(N-(3-(tert-butyl)-5-cyclopropylbenzyl)-2-(N-(2,3,4-trifluorobenzyl)-(2,3,4,5,6-pentafluoro-phenyl)sulfonamido)acetamido)-3-methoxybenzoic acid] registered a half-life at 25 μM of 247 to 554 min. Also, in the data set with MV4-11 cells, the IC50 was in the range of 0.01 to 316 nM.
Compound `CC(C)(C)c1cc(CN(C(=O)CN(Cc2ccc(Cl)cc2)S(=O)(=O)c2c(F)c(F)c(F)c(F)c2F)c2ccc(C(N)=O)cc2)cc(C2CC2)c1` [Compound 1031, 4-(N-(3-(tert-butyl)-5-cyclopropylbenzyl)-2-(N-(4-chlorobenzyl)-(2,3,4,5,6-pentafluorophenyl)sulfon-amido)acetamido) benzamide] showed a half-life at 25 μM in the data set with glutathione (GSH) of 554 to 100000 min. Moreover, the half-inhibitory concentration (IC50) in the data set with MV4-11 cells fell in the range of 1000 to 3160 nM.
The matching figures for `COc1cc(C(=O)O)ccc1N(Cc1cc(C2CC2)cc(C(C)(C)C)c1)C(=O)CN(Cc1ccc(C(F)(F)F)nc1)S(=O)(=O)c1c(F)c(F)c(F)c(F)c1F` [Compound 1132, 4-(N-(3-(tert-butyl)-5-cyclopropylbenzyl)-2-(N-((6-(trifluoromethyl)pyridin-3-yl)methyl)-(2,3,4,5,6-pentafluoro-phenyl)sulfonamido)acetamido)-3-methoxybenzoic acid]: 142 to 247 min and 316 to 1000 nM.
The matching figures for `Cc1cc(C(=O)O)ccc1N(Cc1cc(C2CC2)cc(C(C)(C)C)c1)C(=O)CN(Cc1ccccc1C#N)S(=O)(=O)c1c(F)c(F)c(F)c(F)c1F` [Compound 1090, 4-(N-(3-(tert-butyl)-5-cyclopropylbenzyl)-2-(N-(2-cyanobenzyl)-(2,3,4,5,6-pentafluorophenyl)sulfon-amido)acetamido)-3-methylbenzoic acid]: 142 to 247 min and 316 to 1000 nM.
In the data set with glutathione (GSH), `COc1cc(C(=O)O)ccc1N(Cc1cccc(C(C)(C)C)c1)C(=O)CN(Cc1cnccc1C(F)(F)F)S(=O)(=O)c1c(F)c(F)c(F)c(F)c1F` [Compound 1149, 4-(N-(3-(tert-butyl)benzyl)-2-(N-((4-(trifluoromethyl)pyridin-3-yl)methyl)-(2,3,4,5,6-pentafluoro-phenyl)sulfonamido)acetamido)-3-methoxybenzoic acid] came in with a half-life at 25 μM of 0.1 to 142 min. In addition, in the data set on MV4-11 cells, the IC50 is 316 to 1000 nM.
The matching figures for `CC(C)(C)c1cc(CN(C(=O)CN(Cc2ccccc2F)S(=O)(=O)c2c(F)c(F)c(F)c(F)c2F)c2ccc(C(=O)O)cc2N2CCC2)cc(C2CC2)c1` [Compound 1058, 3-(azetidin-1-yl)-4-(N-(3-(tert-butyl)-5-cyclopropylbenzyl)-2-(N-(2-fluorobenzyl)-(2,3,4,5,6-pentafluoro-phenyl)sulfonamido)acetamido)benzoic acid]: 554 to 100000 min and 316 to 1000 nM.
In turn, `CC(C)c1cc(CN(C(=O)CN(Cc2ccc(Cl)cc2)S(=O)(=O)c2c(F)c(F)c(F)c(F)c2F)c2ccc(C(=O)O)c(O)c2)cc(C2CC2)c1` [Compound 1021, 4-(2-(N-(4-chlorobenzyl)-(2,3,4,5,6-pentafluorophenyl)sulfon-amido)-N-(3-cyclopropyl-5-isopropylbenzyl)acetamido)-2-hydroxybenzoic acid] had a half-life at 25 μM in the data set with glutathione (GSH) of 0.1 to 142 min. The same compound registered an IC50 in the data set on MV4-11 cells of 3160 to 100000 nM.
